How the values were obtained:
[1] = system: C-MYC GQ (DNA, G4) TGGGGAGGGTGGGGAGGGTGGGGAAGG; assay: fluorescence titration, 640 nm; details: 100 mM KCl or NaCl (so in the source); 20 mM PBS, pH 7.4; 1 µM TGP18; one-site fit
[2] = system: TEL22 GQ (DNA, G4) AGGGTTAGGGTTAGGGTTAGGG; assay: fluorescence lifetime (TCSPC); details: qualitative; lifetime 1.6 ns against 0.26 ns free; three-fold excess DNA over titration end point
[3] = system: c-KIT2 GQ (DNA, G4) CGGGCGGGCGCGAGGGAGGGG; assay: fluorescence titration, 640 nm; details: 100 mM KCl or NaCl (so in the source); 20 mM PBS, pH 7.4; 1 µM TGP18; one-site fit
[4] = system: KRAS GQ (DNA, G4) GGGAGGGAGGGAAGGAGGGAGGGAGGGA; assay: fluorescence titration, 640 nm; details: 100 mM KCl or NaCl (so in the source); 20 mM PBS, pH 7.4; 1 µM TGP18; one-site fit
[5] = system: BCL-2 GQ (DNA, G4) CGGGCGCGGGAGGAATTGGGCGGGAGC; assay: CD melting; details: 100 mM KCl; 20 mM PBS, pH 7.4; 2 µM GQ, TGP18 at 1:1 (2 µM)
[6] = system: BCL-2 GQ (DNA, G4) CGGGCGCGGGAGGAATTGGGCGGGAGC; assay: fluorescence titration, 640 nm; details: 100 mM KCl or NaCl (so in the source); 20 mM PBS, pH 7.4; 1 µM TGP18; one-site fit
[7] = system: VEGF GQ (DNA, G4) GGGGGCGGGCCGGGGGCGGGGTCCCGGCGGGGCGGAG; assay: fluorescence titration, 640 nm; details: 100 mM KCl or NaCl (so in the source); 20 mM PBS, pH 7.4; 1 µM TGP18; one-site fit

- KD [1]: 1500 ± 190 nM
- binding [2]: yes
- KD [3]: 5500 ± 230 nM
- KD [4]: 1300 ± 130 nM
- ΔTm [5]: 8 °C
- KD [6]: 728 ± 34 nM
- KD [7]: 2120 ± 350 nM
SMILES: CCN(CC)c1ccc2cc(C=Cc3ccc4ccc5ccc(C)nc5c4[n+]3C)c(=O)oc2c1
